Series [1] relates to Lewis Lung carcinoma (LLC). The series can be described thus: Lewis Lung carcinoma (LLC) model. Conditions: for growth of the LLC tumor (primary tumor mass): compound I7 1 and 10 mg/kg BID PO from day 1, cisplatin single ip dose 10 mg/kg on day 5; for median survival time: compound I7 at 10 mg/kg.
Protocol: Tumor cells for implantation were taken from cells either grown in tissue culture (Leydig, M21) or serially passaged as tumors in mice and prepared as tumor brei (LLC). […] Tumor volumes were measured at intervals over the course of the experiments. Tumors were measured with a vernier caliper and volumes were determined using the formula for the volume of a cylinder: tumor volume=width^2×length×0.52. […] On the final day of the experiment, tumors were dissected free and weighed. The data are expressed as the mean +/− SEM. Student's and Mann-Whitney tests were used to assess differences between means or medians using the InStat software package.
Series [2] has as its system A2780 human ovarian carcinoma. Kind of series: A2780 mouse model. The format is in vivo, SCID mice. As to conditions: compound I7 10 mg/kg BID PO; cisplatin 10 mg/kg ip once on day 20. The text has this: compound I7 prevents the growth of human ovarian carcinoma in SCID mice. […] Survival studies are now underway to characterize the survival benefit of combination therapy in this model.

In the next series the test system is M21 human melanoma cells. Kind of series: M21 human melanoma model. The class given is in vivo, SCID mice. The protocol:
In the M21 model, M21 human melanoma cells implanted subcutaneously into SCID mice developed tumors which grew to approximately 400 mm^3 within 30 days. […] Cisplatin was administered once by ip injection (10 mg/kg) on day 14. […] The results of this dose sequencing experiment establish the efficacy of compound I7 in combination therapy with cisplatin when administered before, concurrent with, or after cisplatin dosing.

For the next series, the system named is lung tumors. The series can be described thus: Implanted tumor cells, lung tumors in mice, compound I7 with or without cisplatin. The format is in vivo. As to conditions: compared to the control groups; lung tumors greater than 2,000 mm^3. The source says:
In an additional experiment, tumor cells were implanted into mice; lung tumors of volumes greater than 2,000 mm^3 were developed. The mice were then separated into four groups, including a control group and three treatment groups: compound I7 alone; compound I7 with cisplatin (a cytotoxic drug); or cisplatin alone. Compared to the control groups, the mice treated with combination compound I7/cisplatin therapy experienced more than an 80 percent reduction in tumor size. In comparison, the group receiving cisplatin alone experienced 50 percent reductions in tumor size and the compound I7 group experienced 20-30 percent reductions. These studies indicate that compound I7 has prominent anti-tumor activity.

Series [3] relates to angiogenesis induced by bFGF or VEGF. The series can be described thus: Corneal micropocket assay. The class given is in vivo, female C57BL6 mice. As to conditions: BID. The source says:
In this model, an intrastromal pocket is surgically created in the normally avascular cornea of female C57BL6 mice 1 mm distance from the corneal-scleral junction. A slow release hydron polymer pellet containing an angiogenic growth factor (bFGF or VEGF) is inserted into the corneal pocket. The pocket is self sealing and antibiotic ointment is placed in the eye.

The test system of the next series is human U251 glioblastoma. Kind of series: U251 glioblastoma model. The format is in vivo, SCID mice. As to conditions: for tumor growth (mean tumor volume with time): compound I7 10 mg/kg BID PO day 14-44, BCNU 12 mg/kg once a day on days 14, 18 and 22. The method, then:
compound I7 was evaluated in the human U251 glioblastoma model. The tumors were implanted onto the flanks of SCID mice and the mean tumor volume with time was calculated. […] These clinically relevant measurements of antitumor efficacy establish the antitumor efficacy of compound I7, especially when combined with standard of care chemotherapeutic agents.

The test system of series [4] is 435/GFP HAL-1 (MDA-MB-435 breast carcinoma) cells. The series can be described thus: Metastasis model, 435/GFP HAL-1 orthotopic implantation. As to conditions: for reduction in lung metastatic burden: eight weeks. The format is in vivo, SCID mice. The text has this: Accurate quantitation of early-stage metastasis in animal models is typically hampered by the lack of sensitive and convenient assays to detect low numbers of tumor cells in a background of normal tissue. Quantitation of late-stage metastasis by counting of visible foci or comparison of organ weights requires substantial tumor burden which can take 3-4 months to develop in conventional models of breast cancer, and generally cannot detect subtle differences. […] The GFP-transfected cells are easily detected by flow cytometry, and fixation of the cells or the addition of antibodies or exogenous substrates is not required. A highly aggressive clone was isolated from the lung of a SCID mouse implanted in the mammary fat pad with several GFP-expressing clones. […] Eight weeks later, lungs were removed and weighed.

Series [5] has as its system Rice 500 rat Leydig testicular tumor. The series can be described thus: Rice 500 rat Leydig testicular tumor model. The class given is in vivo, SCID mice. As to conditions: for survival compared to vehicle treated controls: single agents, p<0.05. The protocol:
The Rice 500 rat Leydig testicular tumor grows very quickly when implanted into the flank of SCID mice. […] Tumor growth was reduced by about 50% at the […] dose in this aggressive model. […] Similar to the results seen in the M21 tumor model, compound I7 increased the effects of cisplatin in the Leydig tumor model. […] In a similar experiment, the effects of compound I7, cisplatin and the combination were evaluated for potentiation of overall survival in the Leydig tumor mice. Survival was increased by either compound I7 or cisplatin alone when compared to vehicle treated controls (p<0.05). More importantly, the combination of the two agents almost doubled overall survival (from 17 to 29 days) (p<0.0l combination vs. cisplatin, p<0.001 combination vs. control). Thus, the ability of compound I7 to work alone or in combination therapy to prevent tumor growth clearly correlates with enhanced survival.

For series [6], the system named is Cancer cells implanted subcutaneously. Conditions: large-volume tumors (>1,500 mm^3); dose dependent; cited from earlier work.
The conditions of series [7]: 15 mg/kg/day, biliary cirrhosis trials; cited from earlier work.

As for `O=C(O)C[C@@H](NC(=O)CNC(=O)c1cc(O)cc(NC2=NCC(O)CN2)c1)c1cc(Cl)cc(Br)c1O` (stereo partly drawn) [compound I7, (3R)-N-[3-hydroxy-5-[(1,4,5,6-tetrahydro-5-hydroxy-2-pyrimidinyl)amino]benzoyl]glycyl-3-(3-bromo-5-chloro-2-hydroxyphenyl)-b-alanine], the “growth of the LLC tumor (primary tumor mass)” value in series [1] is recorded as “did not affect the growth”. In series [1] (cisplatin 10 mg/kg ip day 5), this compound gave a median survival time of 33 days. For the same compound, the figures for the tumor growth result in [2] and in [5] (in the drinking water at 0.02 to 2 mg/ml) were “equally effective as cisplatin” and “inhibited tumor growth dose-dependently”, respectively. Further, in the series on M21 human melanoma cells (10 mg/kg), the “time to tumor volume >200 mm^3” value amounted to 27 days. In addition, the “growth of M21 tumors” value in the series on M21 human melanoma cells (oral BID, at time of tumor implantation or beginning up to 21 days after) is reported as “dose-dependently retarded the growth”. In addition, in the series with lung tumors, the “reduction in tumor size” value is recorded as 20-30%. Also, in [3], the “angiogenesis induced by either bFGF or VEGF” value is “inhibited angiogenesis”. Moreover, the “inhibition of the angiogenic response” value in [3] (maximal inhibitory activity at 10 mg/kg BID orally) is given as “up to 42%”. In the series with human U251 glioblastoma, the “tumor growth (mean tumor volume with time)” value is “little inhibition of tumor growth”. Further, the figures for the “reduction in lung metastatic burden” value in series [4] (10 mg/kg BID orally) and in [4] (30 mg/kg BID orally) were 55% and 69%, respectively. The “spontaneous metastasis of 435 breast carcinoma cells to the lungs” value in series [4] (1, 10 and 30 mg/kg BID orally, visual counting or flow cytometry) is “dose-dependently reduced”. The “growth of the primary tumor mass” value in [4] (mouse, in vivo) is given as “did not delay the growth”. In addition, the “histological examination of lung sections” value in [4] (mouse, in vivo) is “dramatic reduction in the number of large macroscopic metastases and an increase in the presence of microscopic foci of metastases”. The tumor growth reduced entry in [5] (2 mg/ml dose in drinking water) is recorded as “about 50%”. Moreover, the “inhibition of tumor growth” value in [5] (compound I7 10 or 100 mg/kg BID PO from day 5, monotherapy or with cisplatin 10 mg/kg ip once day 5, p<0.01 vs control) was “Dose-related inhibition of tumor growth”. Further, in [5], the “survival compared to vehicle treated controls” value is “increased”. For the same compound, the reduced tumor growth in [6] is given as at most 85%.

Consider `N.N.[Cl][Pt][Cl]` [cisplatin, reference compound], for which the “time to develop a tumor >500 mm^3” value in [1] (cisplatin 10 mg/kg ip day 5, compound I7 10 mg/kg) was 22.4 days. In addition, the “growth of the LLC tumor (primary tumor mass)” value in [1] is on record as “significantly retarded the growth”. In [1] (cisplatin 10 mg/kg ip day 5), this compound registered a median survival time of 33 days. The tumor growth entry in series [2] is recorded as “decreasing tumor growth”. Also, the “reduction in tumor size” value with lung tumors is 50%. For the same compound, in series [5], the “survival compared to vehicle treated controls” value is recorded as “increased”.

With `C[C@H](CCC(=O)O)[C@H]1CC[C@H]2[C@@H]3[C@@H](O)C[C@@H]4C[C@H](O)CC[C@]4(C)[C@H]3CC[C@]12C` [URSO, Ursodeoxycholate], in [7], the tolerability result is “extremely well tolerated and without toxicity”.

On to `O=NN(CCCl)C(=O)NCCCl` [BCNU, carmustine], for which the “tumor growth (mean tumor volume with time)” value in the series with human U251 glioblastoma is on record as “regression of the tumors to the limit of detectability, but the tumors grew back”. In addition, the “duration of the response” value in the series with human U251 glioblastoma (p<0.01) is listed as 5 days.

The record behind these values is patent US6833373B1, “Method of using an integrin antagonist and one or more antineoplastic agents as a combination therapy in the treatment of neoplasia” (G.D. Searle & Co., priority 1998, dated 2004).
